Results from US12139458B2, “(2,5-dioxopyrrolidin-1-yl)(phenyl)-acetamide derivatives and their use in the treatment of neurological diseases” (UNIWERSYTET JAGIELLONSKI, priority 2019, dated 2024).

How the values were obtained:
[1] = test system: Ca2+ channel type L (diltiazem binding site); test: Ca2+ channel type L (diltiazem binding site) affinity study; settings: 100 μM, rat cerebral cortex
Excerpt: (§1) A unique feature of the compound 6 representing compounds of formula (II) according to the invention is the inhibition of calcium currents by blocking the transient receptor potential vanilloid type 1 (TRPV1). This effect has not been disclosed for known AEDs. TRPV1 receptor antagonism may determine the antinociceptive effect of the compounds disclosed herein. The role of the TRPV1 receptor in conduction of pain stimuli has been well documented in specialist literature (Szallasi, A.; Cortright, D. N.; Blum, C. A.; Eid, S. R. Nat. Rev. Drug. Discov. 2007, 6, 357-372). The compounds according to the invention are characterized by a complex mechanism of action, which is not described for known anticonvulsants. It should be emphasized, however, that further in vitro studies may reveal further molecular targets responsible for the pharmacological action of substances being the subject of current patent claim. The results of binding studies (sodium channel, calcium channel) and functional tests (TRPV1 receptor) for compound 6 are shown in Table 3.

[2] = test system: Ca2+ channel type L (verapamil binding site); test: Ca2+ channel type L (verapamil binding site) affinity study; settings: 100 μM, rat cerebral cortex
Excerpt: as §1

[3] = test system: male white Swiss mice (CD-1); test: Oxaliplatin-induced neuropathy, Cold Plate test; type: in vivo; settings: OXPT-induced neuropathy, plate 2° C.
Experimental: Oxaliplatin (OXPT) was dissolved in a 5% glucose solution, followed by intraperitoneal administration to mice. A single dose of 10 mg/kg was used. Tactile and thermal (sensation of low temperature) allodynia associated with oxaliplatin-induced neuropathy are characterized by two phases. The early phase is acute and develops soon after administration of the OXPT, while the symptoms of the later (chronic) phase (associated with neurons damage), develops after a few days. Behavioral tests in mice with OXPT-induced neuropathy were carried out 7 days after its administration, i.e. in the late phase of neuropathy.
The effect of the test compound on thermal allodynia was evaluated in a Cold Plate test using specialized equipment—Cold/Hot Plate; Bioseb, France. The animals were placed individually on a metal plate cooled to 2° C. using the thermostated device. The observed nociceptive reactions of animals included licking and/or characteristic hind paw lift or bounce. The observation time was set at 60 s to eliminate the potential risk of tissue damage and minimize animal discomfort. Similar to the Von Frey test, the measurement was performed 3 times.
Compound 6 was administered at doses of 10, 20 and 30 mg/kg.

TRPV1 receptor (VR1) (h) = TRPV1 receptor (VR1) (h) (Homo sapiens, UniProt Q8NER1); test: TRPV1 receptor functional study (antagonist effect); type: cell-based; settings: human recombinant cells (CHO), read-out: % Inhibition of agonist control responses, TRPV1 receptor (antagonist effect)
Chain of TRPV1 receptor (VR1) (h) (Q8NER1 whole entry): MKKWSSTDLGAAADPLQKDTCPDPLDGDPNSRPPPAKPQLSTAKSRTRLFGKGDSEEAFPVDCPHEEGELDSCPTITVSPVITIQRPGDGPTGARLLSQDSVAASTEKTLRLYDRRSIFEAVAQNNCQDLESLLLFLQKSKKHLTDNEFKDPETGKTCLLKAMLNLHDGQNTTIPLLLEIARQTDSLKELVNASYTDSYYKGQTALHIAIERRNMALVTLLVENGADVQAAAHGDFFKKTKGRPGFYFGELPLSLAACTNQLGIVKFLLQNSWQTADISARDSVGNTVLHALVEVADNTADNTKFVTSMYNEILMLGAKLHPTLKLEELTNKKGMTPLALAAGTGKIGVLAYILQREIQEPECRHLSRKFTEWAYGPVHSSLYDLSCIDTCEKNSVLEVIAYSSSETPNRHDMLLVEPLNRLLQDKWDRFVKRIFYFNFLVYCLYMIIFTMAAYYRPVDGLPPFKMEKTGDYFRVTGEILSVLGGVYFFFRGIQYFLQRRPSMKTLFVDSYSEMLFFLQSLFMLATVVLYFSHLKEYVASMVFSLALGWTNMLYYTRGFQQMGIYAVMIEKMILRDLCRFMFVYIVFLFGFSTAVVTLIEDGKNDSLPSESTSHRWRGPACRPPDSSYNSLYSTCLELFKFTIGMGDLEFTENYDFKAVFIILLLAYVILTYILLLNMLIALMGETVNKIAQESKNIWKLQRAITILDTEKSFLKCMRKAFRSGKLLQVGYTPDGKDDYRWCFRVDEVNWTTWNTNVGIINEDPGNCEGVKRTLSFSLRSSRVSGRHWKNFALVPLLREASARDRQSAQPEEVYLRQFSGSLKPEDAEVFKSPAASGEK
Excerpt: as §1

CYP3A4 = biological target: T1, CYP3A4 (Homo sapiens, UniProt P08684); test: CYP3A4 P450-Glo luminescence test; type: in vitro ADME
T1 construct: purchased Promega (Madison, WI, USA)
T1 sequence (P08684 whole entry): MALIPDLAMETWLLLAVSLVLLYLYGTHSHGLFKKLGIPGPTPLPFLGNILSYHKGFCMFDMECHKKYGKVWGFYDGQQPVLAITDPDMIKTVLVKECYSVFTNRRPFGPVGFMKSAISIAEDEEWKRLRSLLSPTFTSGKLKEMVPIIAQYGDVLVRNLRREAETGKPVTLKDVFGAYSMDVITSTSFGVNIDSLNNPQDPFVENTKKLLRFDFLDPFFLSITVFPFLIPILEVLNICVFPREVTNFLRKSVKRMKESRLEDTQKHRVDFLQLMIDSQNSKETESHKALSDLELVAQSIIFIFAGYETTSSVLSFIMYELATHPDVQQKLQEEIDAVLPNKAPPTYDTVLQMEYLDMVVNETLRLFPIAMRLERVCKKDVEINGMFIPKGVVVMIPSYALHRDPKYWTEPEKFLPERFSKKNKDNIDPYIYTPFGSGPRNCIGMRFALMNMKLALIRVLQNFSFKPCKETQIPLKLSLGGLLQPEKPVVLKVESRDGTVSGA
Experimental: Effect of compound 6 on cytochrome P-450 3A4 and 2D6 activity. The research was conducted using commercial luminescence tests CYP3A4 P450-Glo™ and CYP2D6 P450-Glo™ from Promega (Madison, WI, USA) based on the methodology described in the literature (Socała, K.; Mogilski, S.; Pieróg, M.; Nieoczym, D.; Abram, M.; Szulczyk, B.; Lubelska, A.; Latacz, G.; Doboszewska, U.; Wlaź, P.; Kamiński, K. ACS Chem. Neurosci. 2018, doi: 10.1021/acschemneuro.8b00476; Latacz, G.; Lubelska, A.; Jastrzȩbska-Wiȩek, M.; Partyka, A.; Sobato, A.; Olejarz, A.; Kucwaj-Brysz, K.; Satata, G.; Bojarski, A. J.; Wesołowska, A.; Kieć-Kononowicz, K.; Handzlik, J. Chem. Biol. Drug. Des. 2017, 90, 1295-1306). The CYP isoforms selected for study are responsible for the metabolism of approximately 40-50% of the drugs available on the market, and their stimulation or inhibition determines the majority of metabolic drug interactions. […] In summary, the results obtained indicate a low probability of potential metabolic interactions caused by 6.

[4] = test system: Ca2+ channel type L (dihydropyridine binding site); test: Ca2+ channel type L (dihydropyridine binding site) affinity study; settings: rat cerebral cortex
Excerpt: as §1

[5] = test system: male Swiss albino mice (CD-1); test: Subcutaneous pentylenetetrazole seizure test (scPTZ); type: in vivo
Method in brief: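 Compounds given i.p. in 1% aqueous Tween 30 min before s.c. PTZ at 100 mg/kg. Mice observed 30 min for clonic seizures (whole-body clonus ≥3 s with loss of righting reflex); absence counted as protection. ED50 from 3-4 groups of 6 mice; screening in groups of 4.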

Q: Which results are given for `O=C(C(c1ccccc1)N1C(=O)CCC1=O)N1CCN(c2cccc(C(F)(F)F)c2)CC1` (racemic) [Compound 6, 1-(2-Oxo-1-phenyl-2-(4-(3-(trifluoromethyl)phenyl)piperazin-1-yl)ethyl)pyrrolidine-2,5-dione]?
A: Inhibition of specific control binding, Ca2+ channel type L (diltiazem binding site) [1]: 69.6 (100) %; Inhibition of specific control binding, Ca2+ channel type L (verapamil binding site) [2]: 58.2 (100) %; effect on thermal allodynia in the cold plate test [3]: significantly increased thermal allodynia sensitivity; inhibition at 100 µM (TRPV1 receptor (VR1) (h)): 71.7%; effect on CYP3A4 activity (CYP3A4): no effect; Inhibition of specific control binding, Ca2+ channel type L (dihydropyridine binding site) ([4]; 10 μM): 30.8 (10) %; Inhibition of specific control binding, Ca2+ channel type L (dihydropyridine binding site) ([4]; 100 μM): 82.3 (100) %; ED50 ([5]; Mus musculus, ip, 0.5 h, mice): 59.4 mg/kg; responders at 100 mg/kg ([5]; Mus musculus, ip, screening, 100 mg/kg i.p., 0.5 h, mice, read-out: scPTZ: number of mice protected/number of mice tested (converted)): 100%; mice protected in the scPTZ test ([5]; screening, 100 mg/kg, time point 0.5 h): 100%
